Test results: publication PMC11822212, “High-throughput screening identifies Aurora kinase B as a critical therapeutic target for Merkel cell carcinoma” (Nature Communications, 2025)
Where two headings read alike, the source gives them in different places.

Experiments:
Assay in all cases: qHTS cell viability (CellTiter-Glo, 72 h; primary and follow-up small molecule screen)
Format in all cases: cell-based, human
MCC13 cells (VN-MCC) = system: MCC13 cells (VN-MCC)
MCC26 cells (VN-MCC) = system: MCC26 cells (VN-MCC)
UISO cells (VN-MCC) = system: UISO cells (VN-MCC)
WAGA cells (VP-MCC) = system: WAGA cells (VP-MCC)
MKL-1 cells (VP-MCC) = system: MKL-1 cells (VP-MCC)
MKL-2 cells (VP-MCC) = system: MKL-2 cells (VP-MCC)
[1] = follow-up screen, MCC13, replicate 1
[2] = follow-up screen, MCC13, replicate 2
[3] = follow-up screen, MCC13, replicate 3
[4] = follow-up screen, MCC26, replicate 1
[5] = follow-up screen, MCC26, replicate 2
[6] = follow-up screen, MCC26, replicate 3
[7] = follow-up screen, UISO, replicate 1
[8] = follow-up screen, UISO, replicate 2
[9] = follow-up screen, UISO, replicate 3
[10] = follow-up screen, WAGA, replicate 1
[11] = follow-up screen, WAGA, replicate 2
[12] = follow-up screen, WAGA, replicate 3
[13] = follow-up screen, MKL-1, replicate 1
[14] = follow-up screen, MKL-1, replicate 2
[15] = follow-up screen, MKL-1, replicate 3
[16] = follow-up screen, MKL-2, replicate 1
[17] = follow-up screen, MKL-2, replicate 2
[18] = follow-up screen, MKL-2, replicate 3

Structure (SMILES) | Area under the dose-response curve (AUC) MCC13 Replicate 1 (MCC13 cells (VN-MCC)) | Area under the dose-response curve (AUC) MCC13 Replicate 2 (MCC13 cells (VN-MCC)) | Area under the dose-response curve (AUC) MCC13 Replicate 3 (MCC13 cells (VN-MCC)) | Area under the dose-response curve (AUC) MCC26 Replicate 1 (MCC26 cells (VN-MCC)) | Area under the dose-response curve (AUC) MCC26 Replicate 2 (MCC26 cells (VN-MCC)) | Area under the dose-response curve (AUC) MCC26 Replicate 3 (MCC26 cells (VN-MCC)) | Area under the dose-response curve (AUC) UISO Replicate 1 (UISO cells (VN-MCC)) | Area under the dose-response curve (AUC) UISO Replicate 2 (UISO cells (VN-MCC)) | Area under the dose-response curve (AUC) UISO Replicate 3 (UISO cells (VN-MCC)) | Area under the dose-response curve (AUC) WAGA Replicate 1 (WAGA cells (VP-MCC)) | Area under the dose-response curve (AUC) WAGA Replicate 2 (WAGA cells (VP-MCC)) | Area under the dose-response curve (AUC) WAGA Replicate 3 (WAGA cells (VP-MCC)) | Area under the dose-response curve (AUC) MKL-1 Replicate 1 (MKL-1 cells (VP-MCC)) | Area under the dose-response curve (AUC) MKL-1 Replicate 2 (MKL-1 cells (VP-MCC)) | Area under the dose-response curve (AUC) MKL-1 Replicate 3 (MKL-1 cells (VP-MCC)) | Area under the dose-response curve (AUC) MKL-2 Replicate 1 (MKL-2 cells (VP-MCC)) | Area under the dose-response curve (AUC) MKL-2 Replicate 2 (MKL-2 cells (VP-MCC)) | Area under the dose-response curve (AUC) MKL-2 Replicate 3 (MKL-2 cells (VP-MCC)) | Area under the dose-response curve (AUC) MCC13 Replicate 1 (MCC13 cells (VN-MCC); [1]) | Area under the dose-response curve (AUC) MCC13 Replicate 2 (MCC13 cells (VN-MCC); [2]) | other results
COc1cccc2c1C(=O)c1c(O)c3c(c(O)c1C2=O)C[C@@](O)(C(C)=O)C[C@@H]3O[C@H]1C[C@H](N)[C@H](O)[C@H](C)O1 [Daunorubicin] | 326.2 | 316.0 | 313.0 | 309.1 | 298.6 | 273.9 | 226.5 | 238.3 | 225.1 | 254.8 | 263.7 | 266.2 | 228.6 | 217.7 | 240.0 | 202.9 | 215.3 | 253.2 | – | – | –
Nc1ccc(C(=O)Nc2ccccc2N)cc1 [Dianiline] | – | – | – | – | – | – | – | – | – | – | – | – | – | – | – | – | – | – | 470.9 | 476.2 | Area under the dose-response curve (AUC) MCC13 Replicate 3 (MCC13 cells (VN-MCC); [3]): 459.3; Area under the dose-response curve (AUC) MCC26 Replicate 1 (MCC26 cells (VN-MCC); [4]): 384.0; Area under the dose-response curve (AUC) MCC26 Replicate 2 (MCC26 cells (VN-MCC); [5]): 438.4; Area under the dose-response curve (AUC) MCC26 Replicate 3 (MCC26 cells (VN-MCC); [6]): 461.6; Area under the dose-response curve (AUC) UISO Replicate 1 (UISO cells (VN-MCC); [7]): 377.0; Area under the dose-response curve (AUC) UISO Replicate 2 (UISO cells (VN-MCC); [8]): 432.3; Area under the dose-response curve (AUC) UISO Replicate 3 (UISO cells (VN-MCC); [9]): 415.8; Area under the dose-response curve (AUC) WAGA Replicate 1 (WAGA cells (VP-MCC); [10]): 404.2; Area under the dose-response curve (AUC) WAGA Replicate 2 (WAGA cells (VP-MCC); [11]): 318.5; Area under the dose-response curve (AUC) WAGA Replicate 3 (WAGA cells (VP-MCC); [12]): 364.2; Area under the dose-response curve (AUC) MKL-1 Replicate 1 (MKL-1 cells (VP-MCC); [13]): 338.4; Area under the dose-response curve (AUC) MKL-1 Replicate 2 (MKL-1 cells (VP-MCC); [14]): 393.7; Area under the dose-response curve (AUC) MKL-1 Replicate 3 (MKL-1 cells (VP-MCC); [15]): 398.6; Area under the dose-response curve (AUC) MKL-2 Replicate 1 (MKL-2 cells (VP-MCC); [16]): 329.9; Area under the dose-response curve (AUC) MKL-2 Replicate 2 (MKL-2 cells (VP-MCC); [17]): 373.4; Area under the dose-response curve (AUC) MKL-2 Replicate 3 (MKL-2 cells (VP-MCC); [18]): 408.4
C[C@H]1O[C@@H](O[C@H]2[C@@H](O)C[C@H](O[C@H]3[C@@H](O)C[C@H](O[C@H]4CC[C@@]5(C)[C@H](CC[C@@H]6[C@@H]5CC[C@]5(C)[C@@H](C7=CC(=O)OC7)CC[C@]65O)C4)O[C@@H]3C)O[C@@H]2C)C[C@H](O)[C@@H]1O [Digitoxin] | 232.3 | 249.2 | 235.6 | 279.4 | 294.5 | 239.6 | 201.4 | 226.6 | 210.4 | 276.0 | 299.5 | 286.7 | 269.2 | 287.7 | 299.6 | 287.6 | 297.9 | 317.5 | – | – | –
[O-][n+]1ccccc1SSc1cccc[n+]1[O-] [Dipyrithione] | – | – | – | – | – | – | – | – | – | – | – | – | – | – | – | – | – | – | 333.5 | 320.8 | Area under the dose-response curve (AUC) MCC13 Replicate 3 (MCC13 cells (VN-MCC); [3]): 288.3; Area under the dose-response curve (AUC) MCC26 Replicate 1 (MCC26 cells (VN-MCC); [4]): 305.7; Area under the dose-response curve (AUC) MCC26 Replicate 2 (MCC26 cells (VN-MCC); [5]): 302.8; Area under the dose-response curve (AUC) MCC26 Replicate 3 (MCC26 cells (VN-MCC); [6]): 280.4; Area under the dose-response curve (AUC) UISO Replicate 1 (UISO cells (VN-MCC); [7]): 241.8; Area under the dose-response curve (AUC) UISO Replicate 2 (UISO cells (VN-MCC); [8]): 283.0; Area under the dose-response curve (AUC) UISO Replicate 3 (UISO cells (VN-MCC); [9]): 225.1; Area under the dose-response curve (AUC) WAGA Replicate 1 (WAGA cells (VP-MCC); [10]): 319.9; Area under the dose-response curve (AUC) WAGA Replicate 2 (WAGA cells (VP-MCC); [11]): 346.1; Area under the dose-response curve (AUC) WAGA Replicate 3 (WAGA cells (VP-MCC); [12]): 356.9; Area under the dose-response curve (AUC) MKL-1 Replicate 1 (MKL-1 cells (VP-MCC); [13]): 254.8; Area under the dose-response curve (AUC) MKL-1 Replicate 2 (MKL-1 cells (VP-MCC); [14]): 246.8; Area under the dose-response curve (AUC) MKL-1 Replicate 3 (MKL-1 cells (VP-MCC); [15]): 245.5; Area under the dose-response curve (AUC) MKL-2 Replicate 1 (MKL-2 cells (VP-MCC); [16]): 287.6; Area under the dose-response curve (AUC) MKL-2 Replicate 2 (MKL-2 cells (VP-MCC); [17]): 277.7; Area under the dose-response curve (AUC) MKL-2 Replicate 3 (MKL-2 cells (VP-MCC); [18]): 248.6
CCN(CC)C(=S)SSC(=S)N(CC)CC [Disulfiram] | – | – | – | – | – | – | – | – | – | – | – | – | – | – | – | – | – | – | 436.7 | 415.1 | Area under the dose-response curve (AUC) MCC13 Replicate 3 (MCC13 cells (VN-MCC); [3]): 342.5; Area under the dose-response curve (AUC) MCC26 Replicate 1 (MCC26 cells (VN-MCC); [4]): 398.0; Area under the dose-response curve (AUC) MCC26 Replicate 2 (MCC26 cells (VN-MCC); [5]): 401.3; Area under the dose-response curve (AUC) MCC26 Replicate 3 (MCC26 cells (VN-MCC); [6]): 322.7; Area under the dose-response curve (AUC) UISO Replicate 1 (UISO cells (VN-MCC); [7]): 247.9; Area under the dose-response curve (AUC) UISO Replicate 2 (UISO cells (VN-MCC); [8]): 258.4; Area under the dose-response curve (AUC) UISO Replicate 3 (UISO cells (VN-MCC); [9]): 254.5; Area under the dose-response curve (AUC) WAGA Replicate 1 (WAGA cells (VP-MCC); [10]): 389.6; Area under the dose-response curve (AUC) WAGA Replicate 2 (WAGA cells (VP-MCC); [11]): 433.6; Area under the dose-response curve (AUC) WAGA Replicate 3 (WAGA cells (VP-MCC); [12]): 454.9; Area under the dose-response curve (AUC) MKL-1 Replicate 1 (MKL-1 cells (VP-MCC); [13]): 287.1; Area under the dose-response curve (AUC) MKL-1 Replicate 2 (MKL-1 cells (VP-MCC); [14]): 274.6; Area under the dose-response curve (AUC) MKL-1 Replicate 3 (MKL-1 cells (VP-MCC); [15]): 256.7; Area under the dose-response curve (AUC) MKL-2 Replicate 1 (MKL-2 cells (VP-MCC); [16]): 243.8; Area under the dose-response curve (AUC) MKL-2 Replicate 2 (MKL-2 cells (VP-MCC); [17]): 235.0; Area under the dose-response curve (AUC) MKL-2 Replicate 3 (MKL-2 cells (VP-MCC); [18]): 298.1
CS[C@H]1SC[C@H]2C(=O)N(C)[C@@H](C(C)C)C(=O)OC[C@@H](NC(=O)c3cnc4ccccc4n3)C(=O)N[C@@H](C)C(=O)N(C)[C@@H]1C(=O)N(C)[C@@H](C(C)C)C(=O)OC[C@@H](NC(=O)c1cnc3ccccc3n1)C(=O)N[C@@H](C)C(=O)N2C [Echinomycin] | 310.2 | 265.0 | 244.8 | 267.2 | 264.2 | 215.9 | 140.9 | 135.8 | 136.4 | 225.7 | 172.6 | 225.4 | 235.9 | 188.8 | 250.5 | 166.1 | 154.0 | 225.2 | – | – | –
CC[C@H]1CN2CCc3cc(OC)c(OC)cc3[C@@H]2C[C@@H]1C[C@H]1NCCc2cc(OC)c(OC)cc21 [Emetine] | – | – | – | – | – | – | – | – | – | – | – | – | – | – | – | – | – | – | 319.8 | 335.5 | Area under the dose-response curve (AUC) MCC13 Replicate 3 (MCC13 cells (VN-MCC); [3]): 310.8; Area under the dose-response curve (AUC) MCC26 Replicate 1 (MCC26 cells (VN-MCC); [4]): 331.2; Area under the dose-response curve (AUC) MCC26 Replicate 2 (MCC26 cells (VN-MCC); [5]): 367.3; Area under the dose-response curve (AUC) MCC26 Replicate 3 (MCC26 cells (VN-MCC); [6]): 295.0; Area under the dose-response curve (AUC) UISO Replicate 1 (UISO cells (VN-MCC); [7]): 267.1; Area under the dose-response curve (AUC) UISO Replicate 2 (UISO cells (VN-MCC); [8]): 258.2; Area under the dose-response curve (AUC) UISO Replicate 3 (UISO cells (VN-MCC); [9]): 246.0; Area under the dose-response curve (AUC) WAGA Replicate 1 (WAGA cells (VP-MCC); [10]): 343.0; Area under the dose-response curve (AUC) WAGA Replicate 2 (WAGA cells (VP-MCC); [11]): 356.1; Area under the dose-response curve (AUC) WAGA Replicate 3 (WAGA cells (VP-MCC); [12]): 341.6; Area under the dose-response curve (AUC) MKL-1 Replicate 1 (MKL-1 cells (VP-MCC); [13]): 316.9; Area under the dose-response curve (AUC) MKL-1 Replicate 2 (MKL-1 cells (VP-MCC); [14]): 311.7; Area under the dose-response curve (AUC) MKL-1 Replicate 3 (MKL-1 cells (VP-MCC); [15]): 312.3; Area under the dose-response curve (AUC) MKL-2 Replicate 1 (MKL-2 cells (VP-MCC); [16]): 297.3; Area under the dose-response curve (AUC) MKL-2 Replicate 2 (MKL-2 cells (VP-MCC); [17]): 300.1; Area under the dose-response curve (AUC) MKL-2 Replicate 3 (MKL-2 cells (VP-MCC); [18]): 296.5
CC[n+]1c(-c2ccccc2)c2cc(N)ccc2c2ccc(N)cc21 [Ethidium bromide] | 459.3 | 449.7 | 444.5 | 428.7 | 414.7 | 412.7 | 333.5 | 324.2 | 301.4 | 318.2 | 323.3 | 317.1 | 280.1 | 244.2 | 288.2 | 300.3 | 311.5 | 284.3 | – | – | –
